Test results from ChEMBL document CHEMBL2016565, “Cellular uptake of covalent conjugates of oligonucleotide with membrane-modifying peptide, peptaibol” (Bioorg Med Chem, 2012).
Calls of active or inactive are those of the source. The rule behind the calls is not given here.

Legend:
[1] = tested on: A549; test: Antisense activity in human A549 cells assessed as down regulation of p53 protein at 1 uM incubated for 8 hrs in serum-free medium followed by 24 hrs incubation in serum-containing medium by Western blotting analysis; format: functional, cell-based
[2] = tested on: A549; test: Antisense activity in human A549 cells assessed as down regulation of p53 protein at 5 uM incubated for 8 hrs in serum-free medium followed by 24 hrs incubation in serum-containing medium by Western blotting analysis; format: functional
[3] = tested on: A549; test: Cytotoxicity against human A549 cells assessed as cytoplasmic LDH release at 5 uM after 2 to 24 hrs by spectrophotometry; format: cell-based; details: a549, 5 µM
[4] = tested on: A549; test: Drug uptake in human A549 cells after 24 hrs by confocal laser-scanning microscopy; format: ADME, cell-based; details: a549, 24 h
[5] = tested on: A549; test: Drug uptake in human A549 cells at 1 to 4 uM by confocal laser-scanning microscopy; format: ADME, cell-based; details: a549, 4 µM
[6] = tested on: A549; test: Drug uptake in human A549 cells assessed as increase in fluorescence intensity at 1 uM after 2 hrs by fluorescence analysis using fluorescein labelled compound relative to oligonucleotide treated control; format: ADME, cell-based; details: a549, 2 h
[7] = tested on: A549; test: Drug uptake in human A549 cells assessed as increase in fluorescence intensity at 1 uM after 8 hrs by fluorescence analysis using fluorescein labelled compound relative to oligonucleotide treated control; format: ADME, cell-based; details: a549, 8 h
[8] = tested on: A549; test: Drug uptake in human A549 cells assessed as increase in fluorescence intensity at 1 uM after 24 hrs by fluorescence analysis using fluorescein labelled compound relative to oligonucleotide treated control; format: ADME, cell-based; details: a549, 24 h
[9] = tested on: A549; test: Drug uptake in human A549 cells assessed as increase in fluorescence intensity at 1 uM after 24 hrs by fluorescence analysis relative to control; format: ADME, cell-based; details: a549, 24 h

Drug uptake [4]	Drug uptake ([5]; TDE = time-dependent effect)	fold change (FC) [6]	fold change (FC) [7]	fold change (FC) [8]	Drug uptake [5]	Drug uptake [9]	SMILES	Activity [1]	Activity [2]	Activity [3]
–	–	–	–	–	–	–	CC[C@H](C)[C@H](NC(=O)[C@H](CC(N)=O)NC(=O)C(C)(C)NC(C)=O)C(=O)N[C@H](C(=O)NC(C)(C)C(=O)N1CCC[C@H]1C(=O)N[C@@H](CC(C)C)C(=O)N[C@@H](CC(C)C)C(=O)NC(C)(C)C(=O)N1CCC[C@H]1C(=O)N[C@H](C(=O)N[C@@H](CSSCCCCCCOP(=O)(O)OC[C@H]1O[C@@H](n2ccc(N)nc2=O)C[C@@H]1OP(O)(=S)OC[C@H]1O[C@@H](n2ccc(N)nc2=O)C[C@@H]1OP(O)(=S)OC[C@H]1O[C@@H](n2ccc(N)nc2=O)C[C@@H]1OP(O)(=S)OC[C@H]1O[C@@H](n2cc(C)c(=O)[nH]c2=O)C[C@@H]1OP(O)(=S)OC[C@H]1O[C@@H](n2cnc3c(=O)[nH]c(N)nc32)C[C@@H]1OP(O)(=S)OC[C@H]1O[C@@H](n2ccc(N)nc2=O)C[C@@H]1OP(O)(=S)OC[C@H]1O[C@@H](n2cc(C)c(=O)[nH]c2=O)C[C@@H]1OP(O)(=S)OC[C@H]1O[C@@H](n2ccc(N)nc2=O)C[C@@H]1OP(O)(=S)OC[C@H]1O[C@@H](n2ccc(N)nc2=O)C[C@@H]1OP(O)(=S)OC[C@H]1O[C@@H](n2ccc(N)nc2=O)C[C@@H]1OP(O)(=S)OC[C@H]1O[C@@H](n2ccc(N)nc2=O)C[C@@H]1OP(O)(=S)OC[C@H]1O[C@@H](n2ccc(N)nc2=O)C[C@@H]1OP(O)(=S)OC[C@H]1O[C@@H](n2ccc(N)nc2=O)C[C@@H]1OP(O)(=S)OC[C@H]1O[C@@H](n2cc(C)c(=O)[nH]c2=O)C[C@@H]1OP(O)(=S)OC[C@H]1O[C@@H](n2cnc3c(=O)[nH]c(N)nc32)C[C@@H]1OP(O)(=S)OC[C@H]1O[C@@H](n2cnc3c(=O)[nH]c(N)nc32)C[C@@H]1OP(O)(=S)OC[C@H]1O[C@@H](n2ccc(N)nc2=O)C[C@@H]1OP(O)(=S)OC[C@H]1O[C@@H](n2cc(C)c(=O)[nH]c2=O)C[C@@H]1OP(O)(=S)OC[C@H]1O[C@@H](n2ccc(N)nc2=O)C[C@@H]1OP(O)(=S)OC[C@H]1O[C@@H](n2ccc(N)nc2=O)C[C@@H]1O)C(N)=O)[C@@H](C)CC)[C@@H](C)CC (some centres undefined)	inactive	20%	Non-toxic
Dose-dependent effect	tde	4	7	14	–	–	CC[C@H](C)[C@H](NC(=O)[C@H](CC(N)=O)NC(=O)C(C)(C)NC(C)=O)C(=O)N[C@H](C(=O)NC(C)(C)C(=O)N1CCC[C@H]1C(=O)N[C@@H](CC(C)C)C(=O)N[C@@H](CC(C)C)C(=O)NC(C)(C)C(=O)N1CCC[C@H]1C(=O)N[C@H](C(=O)N[C@@H](CSC1CC(=O)N(CCCCCC(=O)NCCCCCCOP(=O)(O)OC[C@H]2O[C@@H](n3ccc(N)nc3=O)C[C@@H]2OP(O)(=S)OC[C@H]2O[C@@H](n3ccc(N)nc3=O)C[C@@H]2OP(O)(=S)OC[C@H]2O[C@@H](n3ccc(N)nc3=O)C[C@@H]2OP(O)(=S)OC[C@H]2O[C@@H](n3cc(C)c(=O)[nH]c3=O)C[C@@H]2OP(O)(=S)OC[C@H]2O[C@@H](n3cnc4c(=O)[nH]c(N)nc43)C[C@@H]2OP(O)(=S)OC[C@H]2O[C@@H](n3ccc(N)nc3=O)C[C@@H]2OP(O)(=S)OC[C@H]2O[C@@H](n3cc(C)c(=O)[nH]c3=O)C[C@@H]2OP(O)(=S)OC[C@H]2O[C@@H](n3ccc(N)nc3=O)C[C@@H]2OP(O)(=S)OC[C@H]2O[C@@H](n3ccc(N)nc3=O)C[C@@H]2OP(O)(=S)OC[C@H]2O[C@@H](n3ccc(N)nc3=O)C[C@@H]2OP(O)(=S)OC[C@H]2O[C@@H](n3ccc(N)nc3=O)C[C@@H]2OP(O)(=S)OC[C@H]2O[C@@H](n3ccc(N)nc3=O)C[C@@H]2OP(O)(=S)OC[C@H]2O[C@@H](n3ccc(N)nc3=O)C[C@@H]2OP(O)(=S)OC[C@H]2O[C@@H](n3cc(C)c(=O)[nH]c3=O)C[C@@H]2OP(O)(=S)OC[C@H]2O[C@@H](n3cnc4c(=O)[nH]c(N)nc43)C[C@@H]2OP(O)(=S)OC[C@H]2O[C@@H](n3cnc4c(=O)[nH]c(N)nc43)C[C@@H]2OP(O)(=S)OC[C@H]2O[C@@H](n3ccc(N)nc3=O)C[C@@H]2OP(O)(=S)OC[C@H]2O[C@@H](n3cc(C)c(=O)[nH]c3=O)C[C@@H]2OP(O)(=S)OC[C@H]2O[C@@H](n3ccc(N)nc3=O)C[C@@H]2OP(O)(=S)OC[C@H]2O[C@@H](n3ccc(N)nc3=O)C[C@@H]2O)C1=O)C(N)=O)[C@@H](C)CC)[C@@H](C)CC (some centres undefined)	inactive	50%	Non-toxic
Not Active	–	–	–	–	Not Active	–	Nc1ccn([C@H]2C[C@H](OP(O)(=S)OC[C@H]3O[C@@H](n4cnc5c(N)ncnc54)C[C@@H]3OP(O)(=S)OC[C@H]3O[C@@H](n4cnc5c(=O)[nH]c(N)nc54)C[C@@H]3OP(O)(=S)OC[C@H]3O[C@@H](n4cnc5c(=O)[nH]c(N)nc54)C[C@@H]3OP(O)(=S)OC[C@H]3O[C@@H](n4cnc5c(=O)[nH]c(N)nc54)C[C@@H]3OP(O)(=S)OC[C@H]3O[C@@H](n4cnc5c(=O)[nH]c(N)nc54)C[C@@H]3OP(O)(=S)OC[C@H]3O[C@@H](n4cnc5c(=O)[nH]c(N)nc54)C[C@@H]3OP(O)(=S)OC[C@H]3O[C@@H](n4cnc5c(=O)[nH]c(N)nc54)C[C@@H]3OP(O)(=S)OC[C@H]3O[C@@H](n4cnc5c(N)ncnc54)C[C@@H]3OP(O)(=S)OC[C@H]3O[C@@H](n4cnc5c(=O)[nH]c(N)nc54)C[C@@H]3OP(O)(=S)OC[C@H]3O[C@@H](n4ccc(N)nc4=O)C[C@@H]3OP(O)(=S)OC[C@H]3O[C@@H](n4cnc5c(N)ncnc54)C[C@@H]3OP(O)(=S)OC[C@H]3O[C@@H](n4cnc5c(=O)[nH]c(N)nc54)C[C@@H]3OP(O)(=S)OC[C@H]3O[C@@H](n4cnc5c(=O)[nH]c(N)nc54)C[C@@H]3OP(O)(=S)OC[C@H]3O[C@@H](n4cnc5c(=O)[nH]c(N)nc54)C[C@@H]3O)[C@@H](COP(O)(=S)O[C@H]3C[C@H](n4ccc(N)nc4=O)O[C@@H]3COP(O)(=S)O[C@H]3C[C@H](n4cnc5c(=O)[nH]c(N)nc54)O[C@@H]3COP(O)(=S)O[C@H]3C[C@H](n4cnc5c(N)ncnc54)O[C@@H]3COP(O)(=S)O[C@H]3C[C@H](n4cnc5c(=O)[nH]c(N)nc54)O[C@@H]3COP(O)(=S)O[C@H]3C[C@H](n4cnc5c(=O)[nH]c(N)nc54)O[C@@H]3CO)O2)c(=O)n1 (some centres undefined)	–	–	–
–	–	–	–	–	–	Not Active	CC[C@H](C)[C@H](NC(=O)[C@H](CC(N)=O)NC(=O)C(C)(C)NC(C)=O)C(=O)N[C@H](C(=O)NC(C)(C)C(=O)N1CCC[C@H]1C(=O)N[C@@H](CC(C)C)C(=O)N[C@@H](CC(C)C)C(=O)NC(C)(C)C(=O)N1CCC[C@H]1C(=O)N[C@H](C(=O)N[C@@H](CSC1CC(=O)N(CCCCCC(=O)NCCCCCCOP(=O)(O)OC[C@H]2O[C@@H](n3cnc4c(=O)[nH]c(N)nc43)C[C@@H]2OP(O)(=S)OC[C@H]2O[C@@H](n3cnc4c(=O)[nH]c(N)nc43)C[C@@H]2OP(O)(=S)OC[C@H]2O[C@@H](n3cnc4c(N)ncnc43)C[C@@H]2OP(O)(=S)OC[C@H]2O[C@@H](n3cnc4c(=O)[nH]c(N)nc43)C[C@@H]2OP(O)(=S)OC[C@H]2O[C@@H](n3ccc(N)nc3=O)C[C@@H]2OP(O)(=S)OC[C@H]2O[C@@H](n3ccc(N)nc3=O)C[C@@H]2OP(O)(=S)OC[C@H]2O[C@@H](n3cnc4c(N)ncnc43)C[C@@H]2OP(O)(=S)OC[C@H]2O[C@@H](n3cnc4c(=O)[nH]c(N)nc43)C[C@@H]2OP(O)(=S)OC[C@H]2O[C@@H](n3cnc4c(=O)[nH]c(N)nc43)C[C@@H]2OP(O)(=S)OC[C@H]2O[C@@H](n3cnc4c(=O)[nH]c(N)nc43)C[C@@H]2OP(O)(=S)OC[C@H]2O[C@@H](n3cnc4c(=O)[nH]c(N)nc43)C[C@@H]2OP(O)(=S)OC[C@H]2O[C@@H](n3cnc4c(=O)[nH]c(N)nc43)C[C@@H]2OP(O)(=S)OC[C@H]2O[C@@H](n3cnc4c(=O)[nH]c(N)nc43)C[C@@H]2OP(O)(=S)OC[C@H]2O[C@@H](n3cnc4c(N)ncnc43)C[C@@H]2OP(O)(=S)OC[C@H]2O[C@@H](n3cnc4c(=O)[nH]c(N)nc43)C[C@@H]2OP(O)(=S)OC[C@H]2O[C@@H](n3ccc(N)nc3=O)C[C@@H]2OP(O)(=S)OC[C@H]2O[C@@H](n3cnc4c(N)ncnc43)C[C@@H]2OP(O)(=S)OC[C@H]2O[C@@H](n3cnc4c(=O)[nH]c(N)nc43)C[C@@H]2OP(O)(=S)OC[C@H]2O[C@@H](n3cnc4c(=O)[nH]c(N)nc43)C[C@@H]2OP(O)(=S)OC[C@H]2O[C@@H](n3cnc4c(=O)[nH]c(N)nc43)C[C@@H]2O)C1=O)C(N)=O)[C@@H](C)CC)[C@@H](C)CC (some centres undefined)	–	–	–
